According to ChEMBL document CHEMBL1201862, “PubChem BioAssay data set” (2004):
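Tested at 5 concentrations; 48 h exposure; 96-well plates; endpoints linearly interpolated, else capped at highest concentration. At the GI50, growth is halved.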 Active and inactive are the calls of the source. Cut-off read from the data, not from the text of the source: active = GI50 up to about 1.1 µM and inactive = higher.

How the values were obtained:
Test in all cases: NCI anticancer screen, dose series, 48 h
[1] = test system: MOLT-4
[2] = test system: T47D
[3] = test system: Hs-578T
[4] = test system: OVCAR-3
[5] = test system: SF-268
[6] = test system: EKVX
[7] = test system: RXF 393
[8] = test system: KM12
[9] = test system: MDA-MB-435
[10] = test system: SW-620
[11] = test system: PC-3
[12] = test system: OVCAR-4
[13] = test system: HCT-116
[14] = test system: MDA-MB-231
[15] = test system: UACC-257
[16] = test system: IGROV-1
[17] = test system: OVCAR-8
[18] = test system: COLO 205
[19] = test system: MCF7

Measured: GI50

Nc1ccc(/N=N/c2c(S(=O)(=O)O)cc3ccccc3c2S(=O)(=O)O)cc1
inactive: [1] > 100 µM | [2] > 100 µM | [3] > 100 µM | [4] > 100 µM | [5] > 100 µM | [6] > 100 µM | [7] > 100 µM | [8] > 100 µM | [9] > 100 µM | [10] > 100 µM | [11] > 100 µM | [12] > 100 µM | [13] > 100 µM | [14] > 100 µM | [15] > 100 µM | [16] > 100 µM | [17] > 100 µM

COC(=O)C1SC(N(C)c2ccccc2)=NC12c1ccccc1Nc1ccccc12 (stereo not drawn)
inactive: [1] 7.31 µM | [2] 15.7 µM | [18] 14.5 µM | [3] 14.5 µM | [4] 11 µM | [5] 21 µM | [19] 22 µM | [6] 22.8 µM | [7] 31.3 µM | [8] 18.3 µM | [9] 17.6 µM | [10] 27.9 µM | [11] 16.3 µM | [12] 19.7 µM | [13] 23.3 µM | [15] 25.2 µM | [16] 14.2 µM | [17] 8.89 µM

CCOC(=O)NC1CN2CCC1CC2 (stereo not drawn)
inactive: [1] > 100 µM | [2] > 100 µM | [18] > 100 µM | [3] > 100 µM | [4] > 100 µM | [5] > 100 µM | [6] > 100 µM | [7] > 100 µM | [8] > 100 µM | [9] > 100 µM | [10] > 100 µM | [11] > 100 µM | [12] > 100 µM | [13] > 100 µM | [14] > 100 µM | [15] > 100 µM | [16] > 100 µM | [17] > 100 µM

Cc1nn2c(N)cc(=O)nc2nc1/C=C/c1ccc(N(C)C)cc1
inactive: [1] > 52 µM | [2] > 100 µM | [18] 7.74 µM | [3] 6.84 µM | [5] > 100 µM | [19] 3.92 µM | [6] 7.23 µM | [7] 98.6 µM | [8] > 28.8 µM | [9] 7.93 µM | [10] > 100 µM | [11] > 100 µM | [12] > 26.5 µM | [13] 12 µM | [15] 17.3 µM | [16] 16.6 µM | [17] > 25.2 µM

CSc1ccc(/C=C2\CNC/C(=C\c3ccc(SC)cc3)C2=O)cc1
inactive: [2] > 371 µM | [18] > 371 µM | [3] 64.1 µM | [4] 36.8 µM | [5] 13.4 µM | [6] > 170 µM | [7] 25.9 µM | [9] > 371 µM | [10] > 371 µM | [11] > 100 µM | [13] 144 µM | [14] 86.9 µM | [15] > 143 µM | [16] > 81.7 µM | [17] 52.4 µM

CC(=O)OCCOCn1c2c(c(=S)[nH]c1=O)CCC2
inactive: [1] > 100 µM | [18] > 100 µM | [3] > 100 µM | [4] > 100 µM | [5] > 100 µM | [19] > 100 µM | [6] > 100 µM | [7] > 100 µM | [8] > 100 µM | [9] > 100 µM | [10] > 100 µM | [11] > 100 µM | [12] > 100 µM | [13] > 100 µM | [14] > 100 µM | [15] > 100 µM | [16] > 100 µM | [17] > 100 µM
